In ChEMBL document CHEMBL3351298, “Design, synthesis and evaluation of novel tacrine-(β-carboline) hybrids as multifunctional agents for the treatment of Alzheimer's disease” (Bioorg Med Chem, 2014):
Calls of active or inactive are those of the source. No cut-off for these calls is given here.

Experiments:
[1] = target: Amyloid-beta precursor protein (Homo sapiens) (UniProt P05067); test: Inhibition of amyloid beta (1 to 42) (unknown origin) self-induced aggregation at 20 uM after 46 to 48 hrs by thioflavin-T based fluorometric assay
[2] = Retention time of the compound using CH3OH/H2O (0.1% Formic acid), 65% (v/v) of CH3OH gradient by HPLC analysis; type: physicochemical
Acetylcholinesterase [3] = target: Acetylcholinesterase (Electrophorus electricus, UniProt O42275)
Description: Inhibition of electric eel AChE using acetylthiocholine iodide as substrate incubated for 6 mins by spectrophotometric method

Cholinesterase = Cholinesterase (Equus caballus, UniProt P81908)
Description: Inhibition of equine serum BChE using S-butyrylthiocholine chloride as substrate incubated for 6 mins by spectrophotometric method

Acetylcholinesterase [4] = target: Acetylcholinesterase (Homo sapiens, UniProt P22303)
Description: Inhibition of human AChE using acetylthiocholine iodide as substrate incubated for 6 mins by spectrophotometric method

in vitro = settings: PAMPA
[5] = Retention time of the compound using CH3OH/H2O (0.1% Formic acid), 60% (v/v) of CH3OH gradient by HPLC analysis; type: physicochemical
[6] = Retention time of the compound using CH3OH/H2O(0.1% Formic acid), 70% (v/v) of CH3OH gradient by HPLC analysis; type: physicochemical
[7] = Retention time of the compound using CH3OH/H2O(0.1% Formic acid), 55% (v/v) of CH3OH gradient by HPLC analysis; type: physicochemical
[8] = Retention time of the compound using CH3OH/H2O(0.1% Formic acid), 75% (v/v) of CH3OH gradient by HPLC analysis; type: physicochemical
PC-12 = test: Neuroprotective activity against H2O2-induced oxidative damage in rat PC12 cells assessed as increase in cell viability at 0.4 to 10 uM after 24 hrs by MTT assay; type: functional, cell-based
[9] = Retention time of the compound using CH3OH/H2O(0.1% Formic acid), 45% (v/v) of CH3OH gradient by HPLC analysis; type: physicochemical
[10] = Metal chelating activity of the compound assessed as Cu2+ complex formation at 25 uM by UV-vis spectrometry; type: physicochemical
[11] = Neuroprotective activity against H2O2-induced oxidative damage in rat PC12 cells assessed as increase in cell viability at 10 uM after 24 hrs by MTT assay; type: functional, PC-12
[12] = target: Acetylcholinesterase (Electrophorus electricus) (UniProt O42275); test: Mixed-type of inhibition in electric eel AChE by Lineweaver-Burk plot analysis
Chain of Acetylcholinesterase (Electrophorus electricus) (O42275 24-633 limits assumed): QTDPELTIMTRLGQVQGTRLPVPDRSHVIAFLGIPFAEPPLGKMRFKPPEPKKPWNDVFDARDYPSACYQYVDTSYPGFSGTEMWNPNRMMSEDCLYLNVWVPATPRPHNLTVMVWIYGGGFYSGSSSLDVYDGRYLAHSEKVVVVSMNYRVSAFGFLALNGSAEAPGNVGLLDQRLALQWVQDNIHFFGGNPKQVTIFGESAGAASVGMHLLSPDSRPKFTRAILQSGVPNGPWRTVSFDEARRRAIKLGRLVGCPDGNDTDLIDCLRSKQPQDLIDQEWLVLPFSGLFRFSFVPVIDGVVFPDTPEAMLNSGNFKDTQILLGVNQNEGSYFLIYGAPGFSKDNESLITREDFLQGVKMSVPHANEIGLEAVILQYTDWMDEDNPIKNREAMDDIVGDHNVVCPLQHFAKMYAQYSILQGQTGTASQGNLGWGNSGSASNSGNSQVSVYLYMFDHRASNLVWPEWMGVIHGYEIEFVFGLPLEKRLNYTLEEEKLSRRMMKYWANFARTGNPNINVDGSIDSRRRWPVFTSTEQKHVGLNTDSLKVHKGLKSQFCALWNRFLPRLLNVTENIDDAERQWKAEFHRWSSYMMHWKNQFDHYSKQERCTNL

Chain of Acetylcholinesterase (Electrophorus electricus, UniProt O42275) (O42275 whole entry): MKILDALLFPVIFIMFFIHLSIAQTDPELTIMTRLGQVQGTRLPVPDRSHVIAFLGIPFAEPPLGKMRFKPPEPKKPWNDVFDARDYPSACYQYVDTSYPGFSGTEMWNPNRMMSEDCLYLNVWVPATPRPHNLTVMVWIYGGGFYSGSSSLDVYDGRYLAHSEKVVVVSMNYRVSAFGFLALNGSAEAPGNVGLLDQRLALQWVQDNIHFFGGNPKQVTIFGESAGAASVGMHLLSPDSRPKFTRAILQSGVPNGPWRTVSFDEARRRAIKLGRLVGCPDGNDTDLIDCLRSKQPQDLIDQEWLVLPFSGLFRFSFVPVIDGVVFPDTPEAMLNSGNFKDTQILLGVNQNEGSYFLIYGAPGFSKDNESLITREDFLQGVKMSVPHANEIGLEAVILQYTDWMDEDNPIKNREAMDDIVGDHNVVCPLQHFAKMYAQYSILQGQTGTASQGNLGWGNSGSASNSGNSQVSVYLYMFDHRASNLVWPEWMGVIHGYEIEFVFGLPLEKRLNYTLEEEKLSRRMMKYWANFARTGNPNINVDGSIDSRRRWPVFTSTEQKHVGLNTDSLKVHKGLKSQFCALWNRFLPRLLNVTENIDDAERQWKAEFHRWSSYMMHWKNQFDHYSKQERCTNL
Chain of Amyloid-beta precursor protein (Homo sapiens) (P05067 whole entry): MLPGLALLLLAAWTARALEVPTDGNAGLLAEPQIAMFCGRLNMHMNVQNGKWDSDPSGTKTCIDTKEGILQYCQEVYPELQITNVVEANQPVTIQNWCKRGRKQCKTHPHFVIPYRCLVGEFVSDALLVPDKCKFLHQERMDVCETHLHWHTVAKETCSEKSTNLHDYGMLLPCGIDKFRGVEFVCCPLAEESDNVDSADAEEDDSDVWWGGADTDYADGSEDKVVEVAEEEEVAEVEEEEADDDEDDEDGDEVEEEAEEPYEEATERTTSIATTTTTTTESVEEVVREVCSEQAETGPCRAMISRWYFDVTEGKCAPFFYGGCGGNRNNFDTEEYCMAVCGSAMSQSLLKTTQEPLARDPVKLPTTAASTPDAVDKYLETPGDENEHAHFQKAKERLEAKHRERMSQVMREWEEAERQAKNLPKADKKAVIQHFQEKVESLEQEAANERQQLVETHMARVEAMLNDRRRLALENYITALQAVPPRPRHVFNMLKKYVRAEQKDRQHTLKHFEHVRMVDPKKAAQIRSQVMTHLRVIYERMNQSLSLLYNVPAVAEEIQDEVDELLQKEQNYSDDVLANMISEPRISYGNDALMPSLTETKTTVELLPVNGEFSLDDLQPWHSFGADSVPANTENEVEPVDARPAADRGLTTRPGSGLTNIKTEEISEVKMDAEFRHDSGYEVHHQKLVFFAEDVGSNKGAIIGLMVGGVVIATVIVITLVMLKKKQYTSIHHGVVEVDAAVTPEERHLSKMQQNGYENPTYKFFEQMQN
Chain of Cholinesterase (P81908 whole entry): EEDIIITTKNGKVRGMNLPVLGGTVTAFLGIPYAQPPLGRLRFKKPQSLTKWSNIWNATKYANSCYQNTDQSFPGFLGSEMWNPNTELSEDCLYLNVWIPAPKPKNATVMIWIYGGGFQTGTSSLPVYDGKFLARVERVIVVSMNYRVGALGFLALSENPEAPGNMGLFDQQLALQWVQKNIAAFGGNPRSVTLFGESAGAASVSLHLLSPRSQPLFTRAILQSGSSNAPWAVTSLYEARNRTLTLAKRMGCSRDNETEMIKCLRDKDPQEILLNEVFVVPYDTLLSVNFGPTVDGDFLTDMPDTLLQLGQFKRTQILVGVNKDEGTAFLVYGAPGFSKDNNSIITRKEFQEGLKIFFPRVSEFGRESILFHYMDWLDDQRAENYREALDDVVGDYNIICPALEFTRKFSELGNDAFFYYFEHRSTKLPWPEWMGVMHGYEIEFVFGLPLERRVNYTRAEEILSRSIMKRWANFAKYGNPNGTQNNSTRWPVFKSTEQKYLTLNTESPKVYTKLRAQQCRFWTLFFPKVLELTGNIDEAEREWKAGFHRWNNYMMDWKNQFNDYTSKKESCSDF
Chain of Acetylcholinesterase (Homo sapiens, UniProt P22303) (P22303 whole entry): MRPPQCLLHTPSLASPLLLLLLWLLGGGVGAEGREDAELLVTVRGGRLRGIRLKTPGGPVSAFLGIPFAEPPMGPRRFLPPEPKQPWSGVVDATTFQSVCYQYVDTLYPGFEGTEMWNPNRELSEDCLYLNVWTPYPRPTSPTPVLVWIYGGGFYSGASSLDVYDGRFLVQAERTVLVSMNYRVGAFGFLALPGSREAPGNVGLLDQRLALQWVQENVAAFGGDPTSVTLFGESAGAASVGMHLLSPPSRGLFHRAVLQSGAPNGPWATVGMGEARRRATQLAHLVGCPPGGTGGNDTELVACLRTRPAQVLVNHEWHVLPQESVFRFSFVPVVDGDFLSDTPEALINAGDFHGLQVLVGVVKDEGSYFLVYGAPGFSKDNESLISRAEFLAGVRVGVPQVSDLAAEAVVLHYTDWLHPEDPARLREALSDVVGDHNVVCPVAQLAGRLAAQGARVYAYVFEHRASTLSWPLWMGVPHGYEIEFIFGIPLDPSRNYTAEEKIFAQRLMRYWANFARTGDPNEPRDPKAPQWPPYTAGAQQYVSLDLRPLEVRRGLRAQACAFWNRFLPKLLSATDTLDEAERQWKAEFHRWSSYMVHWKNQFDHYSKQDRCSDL

Structure (SMILES)	inhibition [1] [%]	IC50 (Acetylcholinesterase [3]) [nM]	IC50 (Cholinesterase) [nM]	IC50 (Acetylcholinesterase [4]) [nM]	Papp (in vitro) [×10⁻⁶ cm/s]	also measured
CCc1nc(C(=O)NCCCCCCNc2c3c(nc4ccccc24)CCCC3)cc2c1[nH]c1ccccc12	44.6	51.7	96.9	98.2	4.97	Retention_time [2]: 10.991 min
NCCc1ccc(O)c(O)c1 [DOPAMINE]	–	–	–	–	0.15	–
Cc1nc(C(=O)NCCCCCCNc2c3c(nc4ccccc24)CCCC3)cc2c1[nH]c1ccccc12	41.5	40.6	93.6	92.6	–	Retention_time [5]: 13.685 min
Cc1nc(C(=O)NCCCCCCCCNc2c3c(nc4ccccc24)CCCC3)cc2c1[nH]c1ccccc12	36.6	107	245	153	–	Retention_time [6]: 7.963 min
CC(C)(C)OC(=O)N[C@@H](Cc1c[nH]c2ccccc12)C(=O)NCCCCCCNc1c2c(nc3ccccc13)CCCC2	62.1	67.3	4.3	116	5.52	Retention_time [6]: 4.417 min
O=C(NCCCCCCNc1c2c(nc3ccccc13)CCCC2)c1cc2c(cn1)[nH]c1ccccc12	41.2	32.4	41.3	91.8	5.36	Retention_time [5]: 15.899 min
Cc1nc(C(=O)NCCNc2c3c(nc4ccccc24)CCCC3)cc2c1[nH]c1ccccc12	42.4	485	539	–	–	Retention_time [7]: 10.74 min
O=C(NCCCCCCNc1c2c(nc3ccccc13)CCCC2)c1cc2c([nH]c3ccccc32)c(-c2ccccc2)n1	26.1	127	129	159	–	Retention_time [2]: 23.485 min
CN1C(C(=O)Nc2ccccn2)=C(O)c2ccccc2S1(=O)=O [PIROXICAM]	–	–	–	–	1.2	–
Cc1nc(C(=O)NCCCCCCCCCCNc2c3c(nc4ccccc24)CCCC3)cc2c1[nH]c1ccccc12	38.8	783	364	–	–	Retention_time [8]: 7.918 min
CC(=O)N[C@@H](Cc1c[nH]c2ccccc12)C(=O)NCCCCCCNc1c2c(nc3ccccc13)CCCC2	61.4	115	6.2	153	–	Retention_time [5]: 4.642 min
Clc1cccc(Cl)c1N=C1NCCN1 [CLONIDINE]	–	–	–	–	3.8	–
CC(C)(C)OC(=O)N1Cc2[nH]c3ccccc3c2C[C@H]1C(=O)NCCCCCCNc1c2c(nc3ccccc13)CCCC2	52.4	141	7.5	187	5.81	Retention_time [5]: 17.683 min
O=C(NCCCCCCNc1c2c(nc3ccccc13)CCCC2)c1cc2c([nH]c3ccccc32)c(-c2ccc(F)cc2)n1	29.7	230	205	306	–	Retention_time [8]: 5.973 min
CC1N[C@H](C(=O)NCCCCCCNc2c3c(nc4ccccc24)CCCC3)Cc2c1[nH]c1ccccc21 (stereo not given in full)	48.6	156	240	203	–	–
N[C@@H](Cc1c[nH]c2ccccc12)C(=O)NCCCCCCNc1c2c(nc3ccccc13)CCCC2	66.3	51.6	10.6	96.3	4.45	Activity (PC-12): Active; Retention_time [9]: 5.426 min
CC(=O)[C@H]1CC[C@H]2[C@@H]3CCC4=CC(=O)CC[C@]4(C)[C@H]3CC[C@]12C [PROGESTERONE]	–	–	–	–	4.14	–
COC(=O)c1cc2c(cn1)[nH]c1ccccc12 [BETA-CCM]	22.1	63000	> 100000	–	–	–
O=C(NCCCCCCNc1c2c(nc3ccccc13)CCCC2)[C@@H]1Cc2c([nH]c3ccccc23)CN1	65.8	21.6	39.8	63.2	5.6	Activity [10]: Active; Activity (PC-12): Active; Activity [11]: 73.67%; Retention_time [9]: 7.932 min; inhibition [12]: Active
Cc1nc(C(=O)NCCCCNc2c3c(nc4ccccc24)CCCC3)cc2c1[nH]c1ccccc12	39.3	268	158	325	–	Retention_time [7]: 10.988 min
COc1ccc(-c2nc(C(=O)NCCCCCCNc3c4c(nc5ccccc35)CCCC4)cc3c2[nH]c2ccccc23)cc1	25.2	97.7	329	149	–	Retention_time [8]: 5.664 min
CC1c2[nH]c3ccccc3c2C[C@@H](C(=O)NCCCCCCNc2c3c(nc4ccccc24)CCCC3)N1C(=O)OC(C)(C)C (stereo not given in full)	42.3	389	22.3	526	–	Retention_time [6]: 8.219 min
